Assay results from publication PMC13316043, “Structural basis of NSD2 degradation via targeted recruitment of SCF-FBXO22” (Nature Communications, 2026).

Molecular target: T1, *NSD2 PWWP1 ubiquitination by SCF^FBXO22 (Homo sapiens, UniProt O96028+Q8NEZ5)
T1 construct: fluorescently labeled NSD2-PWWP1 (*NSD2-PWWP1); the FIST domain of FBXO22 rather than full-length FBXO22 that is used in the ubiquitination; 6xHis (N, cleaved yes); GST (cleaved yes); made in house; host or cells: SKP1-FBXO22: Trichoplusia ni insect cells; NSD2 PWWP1 and NEDD8: E. coli BL21(DE3)-CodonPlus RIL
T1 sequence (O96028 222-286 limits assumed): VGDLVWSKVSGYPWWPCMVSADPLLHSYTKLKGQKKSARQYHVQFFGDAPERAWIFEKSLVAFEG
T1 sequence (Q8NEZ5 whole entry, the tested form may be a part): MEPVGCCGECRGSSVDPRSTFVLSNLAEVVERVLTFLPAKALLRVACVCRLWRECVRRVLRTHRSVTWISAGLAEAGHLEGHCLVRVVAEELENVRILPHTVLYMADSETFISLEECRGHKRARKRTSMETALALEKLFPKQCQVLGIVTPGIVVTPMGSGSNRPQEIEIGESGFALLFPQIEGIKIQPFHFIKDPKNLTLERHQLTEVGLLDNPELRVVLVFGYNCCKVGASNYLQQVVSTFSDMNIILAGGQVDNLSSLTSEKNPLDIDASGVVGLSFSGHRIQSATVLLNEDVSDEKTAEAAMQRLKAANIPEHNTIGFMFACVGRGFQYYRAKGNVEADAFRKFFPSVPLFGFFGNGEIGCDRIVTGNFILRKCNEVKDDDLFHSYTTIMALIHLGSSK
Experiment: Ubiquitination assay using purified components
Assay type: biochemical
Details: for SCF^FBXO22-dependent ubiquitination of *NSD2 PWWP1: compound at 0.5 µM, fluorescent SDS-PAGE; for hook effect upon titration in ubiquitination assay: compound titration
Experimental: Ubiquitination assays were performed by mixing 2 separate solutions. First, SKP1-FBXO22, fluorescently labeled NSD2-PWWP1 (*NSD2-PWWP1), and compounds, unless otherwise indicated, were pre-incubated for 15 min on ice. Second, UBA1, UBE2R2, UBE2D2 or UBE2L3 and ARIH1, NEDD8 ~ CUL1-RBX1, MgATP, and reaction buffer (20 mM HEPES pH 8, 200 mM NaCl, 0.5 mg/mL bovine serum albumin (BSA)) were combined on ice to generate a master mix. A standard volume of master mix was added to each reaction tube, and Ub was added to initiate the ubiquitination reaction containing 100µM Ub, 1µM SKP1-FBXO22, 0.5µM *NSD2 PWWP1, 0.5µM compound, 0.1µM UBA1, 1µM UBE2R2, 1µM UBE2D2 or 1µM UBE2L3, and 1µM ARIH1, 1µM NEDD8~CUL1-RBX1, and 5mM MgATP in reaction buffer. Ubiquitination assays comparing *NSD2 PWWP1 mutants were performed similarly, except that SKP1-FBXO22, *NSD2 PWWP1 mutants, and compounds were not incubated separately prior to the start of the reaction. The reactions proceeded at room temperature for 15 min until they were quenched by adding SDS Loading Buffer. The ubiquitinated *NSD2 PWWP1 was visualized by subjecting the reactions to SDS-PAGE and imaging using the Amersham Typhoon.

| SMILES | SCF^FBXO22-dependent ubiquitination of *NSD2 PWWP1 | hook effect upon titration in ubiquitination assay |
| --- | --- | --- |
| O=C1COc2cc(C(=O)N(Cc3ccc(C(=O)Nc4ccc5c(c4)CCN(C(=O)CCCCC(O)S(=O)(=O)O)C5)cc3)C3CC3)ccc2N1 (centres unmarked) [UNC10088] | promotes ubiquitination | observed hook effect |
| Cc1cc(C=O)ccc1C(=O)N1CCc2cc(NC(=O)c3ccc(CN(C(=O)c4ccc5c(c4)OCC(=O)N5)C4CC4)cc3)ccc2C1 [UNC12149] | significant in vitro NSD2 ubiquitination |  |
| O=Cc1ccc(C(=O)N2CCc3cc(NC(=O)c4ccc(CN(C(=O)c5ccc6c(c5)OCC(=O)N6)C5CC5)cc4)ccc3C2)cc1 [UNC10415667] | to the same extent as UNC10088 | characteristic hook effect |
